Measured values taken from ChEMBL document CHEMBL4433262, “Synthesis and biological evaluation of novel benzo[c][1,2,5]thiadiazol-5-yl and thieno[3,2-c]- pyridin-2-yl imidazole derivatives as ALK5 inhibitors” (Bioorg Med Chem Lett, 2019).
The source made the active and inactive calls. No cut-off for these calls is given here.

What was measured:
TGF-beta receptor type-1 = biological target: T1, TGF-beta receptor type-1 (Homo sapiens, UniProt P36897); experiment: Inhibition of human recombinant GST-tagged ALK5 expressed in Sf9 insect cells using casein as substrate incubated for 60 mins in presence of [33P]-ATP by scintillation counting method
T1 sequence (P36897 whole entry): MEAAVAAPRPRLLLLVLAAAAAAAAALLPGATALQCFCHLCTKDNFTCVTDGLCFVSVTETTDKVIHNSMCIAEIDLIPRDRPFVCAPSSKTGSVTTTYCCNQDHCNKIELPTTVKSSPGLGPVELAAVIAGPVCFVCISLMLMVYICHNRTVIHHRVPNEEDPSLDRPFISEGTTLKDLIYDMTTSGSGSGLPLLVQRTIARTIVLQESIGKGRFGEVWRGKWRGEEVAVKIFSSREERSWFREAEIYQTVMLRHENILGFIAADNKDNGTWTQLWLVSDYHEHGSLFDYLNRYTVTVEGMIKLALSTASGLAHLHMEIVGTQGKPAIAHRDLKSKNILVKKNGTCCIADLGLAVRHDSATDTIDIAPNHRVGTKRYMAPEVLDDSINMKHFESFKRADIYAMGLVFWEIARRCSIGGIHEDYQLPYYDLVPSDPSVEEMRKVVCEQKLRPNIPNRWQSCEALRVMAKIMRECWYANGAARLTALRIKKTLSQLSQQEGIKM

[1] = biological target: T2, Mitogen-activated protein kinase 14 (Homo sapiens, UniProt Q16539); experiment: Inhibition of human recombinant untagged p38alpha expressed in Escherichia coli using ATF2 as substrate incubated for 60 mins in presence of [33P]-ATP by scintillation counting method
T2 sequence (Q16539 whole entry): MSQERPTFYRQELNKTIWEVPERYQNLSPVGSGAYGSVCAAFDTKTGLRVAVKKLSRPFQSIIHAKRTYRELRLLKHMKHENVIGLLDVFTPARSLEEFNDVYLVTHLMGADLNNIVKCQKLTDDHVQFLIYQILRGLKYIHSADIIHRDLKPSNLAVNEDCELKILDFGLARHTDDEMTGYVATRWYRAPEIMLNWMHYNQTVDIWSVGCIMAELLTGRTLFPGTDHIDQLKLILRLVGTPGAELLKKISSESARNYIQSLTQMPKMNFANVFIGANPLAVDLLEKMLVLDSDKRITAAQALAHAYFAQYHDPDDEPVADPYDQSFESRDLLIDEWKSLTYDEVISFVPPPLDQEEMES

[2] = biological target: T3, TGF-beta receptor type-1 (Homo sapiens) (UniProt P36897); experiment: Inhibition of ALK5 in human HepG2 cells assessed as reduction in TGFbeta1-induced Smad2 phosphorylation incubated for 36 hrs by Western blot analysis; format: cell-based
T3 sequence (whole entry): T1 sequence (P36897 whole entry)

[3] = biological target: T3, TGF-beta receptor type-1 (Homo sapiens); experiment: Inhibition of ALK5 in human HUVEC cells assessed as reduction in TGFbeta1-induced cell motility at 10 uM incubated for 0 to 48 hrs by wound healing assay; format: cell-based
[4] = biological target: T3, TGF-beta receptor type-1 (Homo sapiens); experiment: Potency index, ratio of IC50 for EW-7197 to IC50 for test compound for inhibition of human recombinant GST-tagged ALK5 expressed in Sf9 insect cells using casein as substrate incubated for 60 mins in presence of [33P]-ATP by scintillation counting method
[5] = biological target: T2, Mitogen-activated protein kinase 14; experiment: Potency index, ratio of IC50 for LY-2157299 to IC50 for test compound for inhibition of human recombinant untagged p38alpha expressed in Escherichia coli using ATF2 as substrate incubated for 60 mins in presence of [33P]-ATP by scintillation counting method
[6] = biological target: T3, TGF-beta receptor type-1 (Homo sapiens); experiment: Potency index, ratio of IC50 for LY-2157299 to IC50 for test compound for inhibition of human recombinant GST-tagged ALK5 expressed in Sf9 insect cells using casein as substrate incubated for 60 mins in presence of [33P]-ATP by scintillation counting method
[7] = biological target: T3, TGF-beta receptor type-1 (Homo sapiens); experiment: Inhibition of ALK5 in human SPC-A1 cells assessed as reduction in TGFbeta1-induced Smad2 phosphorylation at 0.1 to 0.5 uM incubated for 36 hrs by Western blot analysis; format: cell-based
[8] = biological target: T2, Mitogen-activated protein kinase 14; experiment: Potency index, ratio of IC50 for EW-7197 to IC50 for test compound for inhibition of human recombinant untagged p38alpha expressed in Escherichia coli using ATF2 as substrate incubated for 60 mins in presence of [33P]-ATP by scintillation counting

IC50 (TGF-beta receptor type-1) [nM] | IC50 [1] [nM] | Compound | other results
10 | 831 | Cc1cccc(-c2[nH]c(CNc3ccc(F)cc3)nc2-c2ccc3nsnc3c2)n1 | 
43 | > 10000 | Cc1ccc(NCc2nc(-c3cc4cnccc4s3)c(-c3cccc(C)n3)[nH]2)cc1 | 
25 | 4400 | Cc1cccc(-c2[nH]c(CNc3ccccc3)nc2-c2cc3cnccc3s2)n1 | 
21 | 899 | Cc1cccc(-c2[nH]c(CNc3ccccc3C)nc2-c2ccc3nsnc3c2)n1 | 
11 | 1170 | Cc1cccc(-c2[nH]c(CNc3ccccc3F)nc2-c2ccc3nsnc3c2)n1 | 
13 | 513 | Cc1cccc(NCc2nc(-c3ccc4nsnc4c3)c(-c3cccc(C)n3)[nH]2)c1 | 
14 | 2440 | Cc1cccc(-c2[nH]c(CNc3ccccc3C)nc2-c2cc3cnccc3s2)n1 | 
22 | 7700 | Cc1ccc(NCc2nc(-c3ccc4nsnc4c3)c(-c3cccc(C)n3)[nH]2)cc1 | 
17 | 1520 | Cc1cccc(-c2[nH]c(CNc3cccc(F)c3)nc2-c2cc3cnccc3s2)n1 | 
14 | 763 | Cc1cccc(-c2[nH]c(CNc3ccccc3)nc2-c2ccc3nsnc3c2)n1 | 
19 | 2220 | Cc1cccc(NCc2nc(-c3cc4cnccc4s3)c(-c3cccc(C)n3)[nH]2)c1 | 
8 | 148 | Cc1cccc(-c2[nH]c(CNc3cccc(F)c3)nc2-c2ccc3nsnc3c2)n1 | inhibition [2]: Dose-dependent effect; inhibition [3]: Active; Ratio IC50 [4]: 1.8; Ratio IC50 [5]: 3.3; Ratio IC50 [6]: 16.1; inhibition [7]: Active; Ratio IC50 [8]: 19.9
42 | 4840 | Cc1cccc(-c2[nH]c(CNc3ccc(F)cc3)nc2-c2cc3cnccc3s2)n1 | 
23 | 6060 | Cc1cccc(-c2[nH]c(CNc3ccccc3F)nc2-c2cc3cnccc3s2)n1 | 
